Reference: PMC12645469 (Nature structural & molecular biology, 2024)
Each block holds one molecule with its values, some of them ahead of it.

Experiments:
[1] = biological target: T1, NaDC3 (Homo sapiens, UniProt Q8WWT9); test: cryo-EM structure; type: cell-based
T1 sequence (Q8WWT9 1-602): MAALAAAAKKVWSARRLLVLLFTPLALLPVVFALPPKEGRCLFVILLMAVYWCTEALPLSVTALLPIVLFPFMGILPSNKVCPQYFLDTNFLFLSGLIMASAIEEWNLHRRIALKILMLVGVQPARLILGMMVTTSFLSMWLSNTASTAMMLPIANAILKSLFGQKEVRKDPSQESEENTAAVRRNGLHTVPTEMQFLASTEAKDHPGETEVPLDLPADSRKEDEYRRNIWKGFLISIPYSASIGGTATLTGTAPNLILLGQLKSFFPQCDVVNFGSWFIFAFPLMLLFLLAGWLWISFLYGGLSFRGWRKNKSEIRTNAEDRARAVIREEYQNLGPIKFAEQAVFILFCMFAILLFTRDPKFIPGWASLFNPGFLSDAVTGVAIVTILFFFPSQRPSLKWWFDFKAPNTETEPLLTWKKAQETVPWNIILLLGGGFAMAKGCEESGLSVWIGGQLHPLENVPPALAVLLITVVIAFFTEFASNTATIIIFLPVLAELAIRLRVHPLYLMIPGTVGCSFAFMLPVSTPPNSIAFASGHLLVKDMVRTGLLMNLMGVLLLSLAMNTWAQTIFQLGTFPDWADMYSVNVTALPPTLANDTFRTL

[2] = biological target: T1, NaDC3; test: biochemical
[3] = biological target: NaDC3 (Homo sapiens, UniProt Q8WWT9, F93Y)
[4] = biological target: T1, NaDC3; test: intrinsic tryptophan fluorescence quenching; type: binding
[5] = biological target: the molecule itself; test: cryo-EM structure

Chain of NaDC3 (Homo sapiens, UniProt Q8WWT9, F93Y) (Q8WWT9 whole entry F93Y): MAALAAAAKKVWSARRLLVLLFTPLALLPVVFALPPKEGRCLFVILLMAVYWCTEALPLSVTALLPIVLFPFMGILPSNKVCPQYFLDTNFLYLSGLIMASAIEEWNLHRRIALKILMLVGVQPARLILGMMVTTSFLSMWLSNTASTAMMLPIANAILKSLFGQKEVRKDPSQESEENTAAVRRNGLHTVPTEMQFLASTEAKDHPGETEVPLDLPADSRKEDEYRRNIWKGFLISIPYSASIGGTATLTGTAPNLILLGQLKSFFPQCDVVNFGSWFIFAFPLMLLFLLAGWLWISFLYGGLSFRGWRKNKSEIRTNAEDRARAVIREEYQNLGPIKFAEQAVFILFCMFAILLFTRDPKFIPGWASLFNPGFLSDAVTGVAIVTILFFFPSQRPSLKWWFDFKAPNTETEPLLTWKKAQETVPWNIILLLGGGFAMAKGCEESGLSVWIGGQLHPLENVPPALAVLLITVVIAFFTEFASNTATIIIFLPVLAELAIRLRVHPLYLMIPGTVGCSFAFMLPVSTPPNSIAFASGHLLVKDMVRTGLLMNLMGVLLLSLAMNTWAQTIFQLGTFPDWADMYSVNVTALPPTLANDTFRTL

IC50 [1]: 39.2 µM
Molecule: COc1ncc(C)cc1CC[C@@](O)(CC(=O)O)C(=O)O [PF4a, PF-06761281]

Kd [2]: 17.6 ± 9.8 µM | Km [3]: 10.5 ± 5.9 µM
Molecule: O=C(O)CCC(=O)O [Succ, succinate]

Kd [4]: 10.2 ± 5.6 µM
Molecule: CC(C(=O)O)C(C)C(=O)O (centres unmarked) [DMS, 2,3-dimethylsuccinate]

B1: human high affinity sodium-dicarboxylate cotransporter NaDC3 (natural protein)
chain: MAALAAAAKKVWSARRLLVLLFTPLALLPVVFALPPKEGRCLFVILLMAVYWCTEALPLSVTALLPIVLFPFMGILPSNKVCPQYFLDTNFLFLSGLIMASAIEEWNLHRRIALKILMLVGVQPARLILGMMVTTSFLSMWLSNTASTAMMLPIANAILKSLFGQKEVRKDPSQESEENTAAVRRNGLHTVPTEMQFLASTEAKDHPGETEVPLDLPADSRKEDEYRRNIWKGFLISIPYSASIGGTATLTGTAPNLILLGQLKSFFPQCDVVNFGSWFIFAFPLMLLFLLAGWLWISFLYGGLSFRGWRKNKSEIRTNAEDRARAVIREEYQNLGPIKFAEQAVFILFCMFAILLFTRDPKFIPGWASLFNPGFLSDAVTGVAIVTILFFFPSQRPSLKWWFDFKAPNTETEPLLTWKKAQETVPWNIILLLGGGFAMAKGCEESGLSVWIGGQLHPLENVPPALAVLLITVVIAFFTEFASNTATIIIFLPVLAELAIRLRVHPLYLMIPGTVGCSFAFMLPVSTPPNSIAFASGHLLVKDMVRTGLLMNLMGVLLLSLAMNTWAQTIFQLGTFPDWADMYSVNVTALPPTLANDTFRTL
stoichiometry N [5]: 2
